Experimental data taken from US20250205234A1, “ANTI-TUBERCULAR COMPOSITIONS” (priority 2022, published 2025).
Converted amounts (≈) assume the structure as drawn. Like-named read-outs stand apart in the source and are kept apart here.

What was measured:
P. aeruginosa PAO1 WT = test: Biofilm assay, P. aeruginosa; assay type: cell-based, Pseudomonas aeruginosa; conditions: 3 h pre-formed biofilm; 3-9 μM GaMF1.39 or 1-3 μM BDQ; PBS or M9 glucose media
E. coli UTI 189 = test: Biofilm assay, E. coli; assay type: cell-based, Escherichia coli; conditions: 3 h pre-formed biofilm; 3-9 μM GaMF1.39 or 1-3 μM BDQ; PBS or M9 glucose media
[1] = tested on: M. smegmatis F-ATP synthase; assay type: biochemical; conditions: for Inhibition of ATP synthesis of reconstituted MsF-ATP synthase: compound at its IC50 concentration (BDQ 4 nM; GaMF1.39 90 nM)
M. bovis BCG [2] = test: microbe, parasite or virus in culture; assay type: cell-based; conditions: for MIC: Mycobacterium tuberculosis variant bovis BCG, BCG
zebrafish embryos = test: Toxicity testing using zebrafish embryos; assay type: in vivo; conditions: 9 μM, 48 hpf embryos, 5 days
Experimental: Zebrafish care and ethics statement: All Zebrafish experiments were approved by the NTU Institutional Animal Care and Use Committee under reference no #A20038. Experiments were done using wild-type AB zebrafish. The ages of the embryos are shown in hours post fertilization (hpf).
Dechorionated zebrafish wild-type embryos at 48 hpf (n=120) were used. The embryos were immersed respectively in 5 ml of E3 medium containing GaMF1.39 in 6-well plate for 5 days. DMSO was used as vehicle control. The embryos were observed under a microscope. […] The experiment was repeated twice with three replicates each.

[3] = target: M. smegmatis 166M c-subunit mutant IMVs (Mycolicibacterium smegmatis, UniProt A0R201+A0R205+A0R206, I70M); test: biochemical; conditions: read-out: IC50 ATP synthesis, 166M mutant IMVs
[4] = tested on: transmembrane pH gradient of mycobacterial IMVs; test: Proton translocation / uncoupling assay in IMVs (ACMA fluorescence quenching); assay type: biochemical, M. smegmatis; conditions: 2 mM NADH, uncoupler SF6847 as positive control
M. bovis BCG cells = test: microbe, parasite or virus in culture; assay type: cell-based; conditions: Mycobacterium tuberculosis variant bovis BCG, read-out: IC50 intracellular ATP inhibition
[5] = Microsomal stability assay; assay type: in vitro ADME; conditions: pH 7.4; mouse liver microsomes
Experimental: Microsomal stability assay were outsourced and performed by Bioduro-Sundia Ltd, USA based on the following protocol as done in Obach, R. S., Drug Metab. Dispos., 1999, 27, 1350; McGinnity, D. F. & Riley, R. J., Biochem. Soc. Trans., 2001, 29, 135. Working solutions of each compound are prepared from 10 mM stock solution in DMSO diluted to a final concentration of 100 μM in 0.05 M phosphate buffer (pH 7.4). Aliquots of Liver Microsome working solution are transferred into 1.1 mL tubes using a multichannel pipette. Positive control (5 mixed) and test compound working solutions are transferred into the tubes. The mixtures are vortexed gently and then pre-incubated at 37° C. 5 mM NADPH were aliquoted into the tubes using a multichannel pipette and vortexed gently. At each time point of 0 min, 5 min, 15 min, 30 min and 60 min with NADPH or 0, 30 min and 60 min without NADPH, an aliquot is removed from each tube. […] Each compound is analyzed by reversed phase HPLC using a Kinetex 2.6μ C18 100 Å column (3.0 mm×30 mm, Phenomenex). […] The amount of parent compound is determined on the basis of the peak area ratio (compound area to IS area) for each time point. The estimation of Clint (in μL/min/mg protein) is calculated using the following equation: CLint (μLmin^−1 mg^−1)=ln(2)*1000/t1/2/protein concentration

[6] = tested on: M. tuberculosis H37Rv-infected THP-1 cells; test: THP-1 macrophage infection model, intracellular efficacy
Mtb = conditions: Hotra et al. 2020; cited from earlier work
M. bovis BCG [7] = test: microbe, parasite or virus in culture; assay type: cell-based; conditions: Mycobacterium tuberculosis variant bovis BCG, 120 h, read-out: minimal inhibitory concentration (MIC50)
M. bovis BCG [8] = assay type: cell-based; conditions: 7 μM, 96 h, methylene blue
M. smegmatis mc^2 155 = assay type: cell-based
M. bovis BCG [9] = assay type: cell-based
[10] = target: mycobacterial F-ATP synthase (Mycobacterium bovis, UniProt A1KI93+A1KI97); conditions: read-out: IC50 NADH-driven ATP synthesis of IMVs, IMVs of M. bovis BCG; cited from earlier work
[11] = tested on: mycobacterial F-ATP synthase; conditions: IMVs of M. smegmatis, NADH; read-out: IC50 NADH-driven ATP synthesis of IMVs; cited from earlier work

Chain of mycobacterial F-ATP synthase (Mycobacterium bovis, UniProt A1KI93+A1KI97) (A1KI93 whole entry, looked up): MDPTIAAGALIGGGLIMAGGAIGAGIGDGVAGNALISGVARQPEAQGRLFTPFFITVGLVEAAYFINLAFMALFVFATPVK
Chain of mycobacterial F-ATP synthase (Mycobacterium bovis, UniProt A1KI93+A1KI97) (A1KI97 whole entry, looked up): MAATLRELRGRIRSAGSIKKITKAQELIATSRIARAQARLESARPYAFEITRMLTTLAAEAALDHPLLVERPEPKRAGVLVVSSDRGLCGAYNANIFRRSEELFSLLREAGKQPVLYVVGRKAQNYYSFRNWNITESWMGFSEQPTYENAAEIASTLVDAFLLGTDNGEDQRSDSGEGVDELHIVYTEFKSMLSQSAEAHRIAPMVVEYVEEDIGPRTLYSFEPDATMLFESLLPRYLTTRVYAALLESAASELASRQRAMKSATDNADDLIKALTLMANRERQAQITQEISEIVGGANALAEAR

COc1nc2ccc(Br)cc2cc1[C@@H](c1ccccc1)[C@@](O)(CCN(C)C)c1cccc2ccccc12 [BDQ, bedaquiline, reference compound]
Killing of planktonic or biofilm cells (P. aeruginosa PAO1 WT): No significant differences | Killing of planktonic or biofilm cells (E. coli UTI 189): No significant differences | Inhibition of ATP synthesis of reconstituted MsF-ATP synthase [1]: ~51%

CC(C)/N=c1\cc2n(-c3ccc(Cl)cc3)c3ccccc3nc-2cc1Nc1ccc(Cl)cc1 [Clofazamine, clofazimine]
MIC Drug B alone (M. bovis BCG [2]; Clofazamine alone): 0.25 µM (≈ 0.118 µg/mL) | MIC Drug B in combination (M. bovis BCG [2]; Clofazamine in combination with GaMF1.39): 0.125 µM

CCNc1cc(C)nc(Nc2ccc3nc(-c4ccc(Cl)cc4)[nH]c3c2)n1 [GaMF1.39]
Toxicity in zebrafish embryos (survival) (zebrafish embryos): no signs of toxicity-induced killing | IC50 [3]: 64 nM | Uncoupled proton pumping (ACMA quenching) [4]: lacked the ability to induce uncoupled proton pumping | MIC Drug A in combination (M. bovis BCG [2]; GaMF1.39 in combination with Clofazamine): 3 µM | MIC Drug A in combination (M. bovis BCG [2]; GaMF1.39 in combination with Q203): 0.23 µM | MIC (M. bovis BCG [2]; 144 h, read-out: MIC Drug A alone): 6.8 µM (≈ 2.58 µg/mL) | IC50 (M. bovis BCG cells): 3.3 µM | Killing of planktonic or biofilm cells (P. aeruginosa PAO1 WT): no killing of planktonic or biofilm cells | half-life [5]: 29.6 min | microsomal CLint [5]: 46.8 µL/min/mg | Intracellular efficacy, viable bacterial count (CFU/ml) ([6]; 3 and 9 μM, compared with initial inoculum (day 0)): showed a decrease in viable bacterial count | Alteration of infected macrophages (microscopy) ([6]; THP-1 macrophages treated with GaMF1.39): did not show any visible optical alteration of the membrane, cell form or cell size | MIC50 against Mtb (Mtb): 3.0 µM (≈ 1.14 µg/mL) | Killing of planktonic or biofilm cells (E. coli UTI 189): no killing of planktonic or biofilm cells | MIC50 (M. bovis BCG [7]): 6.8 µM (≈ 2.58 µg/mL) | Oxygen consumption within the respiratory chain (M. bovis BCG [8]): unaffected | Killing of M. smegmatis mc^2 155 (M. smegmatis mc^2 155): killed | Killing efficiency against M. bovis BCG (M. bovis BCG [9]; 8-fold its MIC50, up to 6 days, CFU): more efficient than its parental molecule GaMF1 | Growth of M. bovis BCG cultures in killing kinetics experiment (M. bovis BCG [9]; GaMF1.39 10×MIC50, with or without Q203 100 nM, t=10 days): inhibited the growth of M. bovis cells even after 10 days | IC50 [10]: 51.6 ± 1.35 nM | IC50 [11]: 90 ± 1.1 nM | ATP synthesis activity of reconstituted MsF-ATP synthase with compound ([1]; GaMF1.39 at its IC50 concentration, no compound 35.2±2.3): 20.5±2.6 nmol·min^−1 (mg protein)^−1 | Inhibition of ATP synthesis of reconstituted MsF-ATP synthase [1]: 42%

CCc1nc2ccc(Cl)cn2c1C(=O)NCc1ccc(N2CCC(c3ccc(OC(F)(F)F)cc3)CC2)cc1 [Q203, Telacebec]
MIC (M. bovis BCG [2]; read-out: MIC Drug B alone): 0.001 µM (≈ 0.000557 µg/mL) | MIC Drug B in combination (M. bovis BCG [2]; Q203 in combination with GaMF1.39): 0.0005 µM
